Test system: tonic extensor seizure
Assay: Maximal Electroshock (MES) test, block of tonic extensor seizure, 45' post dose p.o.
Type: in vivo, mice
Parameters: key to MES test results (IA): IA: Inactive
Details: for MES test results (IA) / ED50 / % block (MES test) / MES test results (activity in words): mice, 45' post dose; for ED50: Mus musculus, po, 0.75 h; for potency of 3-Me compound relative to 3-H compound (more potent than 3-H): MES ED50, Compd. No. 18 vs No. 17, No. 28 vs No. 27
Excerpt: Activity in the MES test, indicating anticonvulsant activity, is characterized by a block of the tonic extensor seizure caused by applying an electric shock to mice via corneal electrodes as described in Swinyard et al., J. Pharmacol. Exp. Ther., 106, 319-330 (1952) and recorded as % block. A more recent description of current practice in anticonvulsant drug screening has also been reported by Swinyard et al., Epilepsia, 19, 409-428 (1978).

[1] = Table II, 200 mg/kg p.o., only dose tested

`Cc1ccc(NC(=O)N=C2NCCS2)cc1C` [No. 22a, N-(3,4-dimethylphenyl)-N'-(2-thiazolidinylidene)urea] was tested, and the “MES test results (IA)” value (Table II, p.o., dose not given) was “IA”.

`O=C(N=C1NCCS1)Nc1ccccc1` [Table I No. 1, reference compound] was tested, and the ED50 (Table I) was > 200 mg/kg.

For `Cc1ccccc1NC(=O)N=C1NCCS1` [Table I No. 2, reference compound], the ED50 (Table I) was 232 mg/kg and the “% block (MES test)” value (Table I, 200 mg/kg p.o.) was 30%.

With `CN1CCSC1=NC(=O)Nc1ccccc1` [compound 1] the “MES test results (IA)” value (Table II, 100 mg/kg p.o., only dose tested) was “IA”.

Molecule `Cc1ccccc1NC(=O)N=C1SCCN1C` [compound 2] has an ED50 (Table II) of 4.8 mg/kg.

For `Cc1cccc(NC(=O)N=C2SCCN2C)c1` [compound 3], the ED50 (Table II) was < 200 mg/kg and the “% block (MES test)” value [1] was 70%.

`Cc1ccc(NC(=O)N=C2SCCN2C)cc1` [compound 4] was tested, and the “MES test results (IA)” value (Table II, 200 mg/kg p.o.) was “IA”.

With `CN1CCSC1=NC(=O)Nc1ccccc1Cl` [compound 5] the ED50 (Table II) was < 200 mg/kg, the “% block (MES test)” value [1] was 70% and the “MES test results (activity in words)” value [1] was “Active”.

With `CN1CCSC1=NC(=O)Nc1cccc(Cl)c1` [compound 6] the “MES test results (IA)” value (Table II, 200 mg/kg p.o.) was “IA”.

In the case of `CN1CCSC1=NC(=O)Nc1ccc(Cl)cc1` [compound 7], the “MES test results (IA)” value (Table II, 200 mg/kg p.o.) is reported as “IA”.

`COc1ccccc1NC(=O)N=C1SCCN1C` [compound 8] was tested, and the ED50 (Table II) was 235 mg/kg.

In the case of `COc1cccc(NC(=O)N=C2SCCN2C)c1` [compound 9], the ED50 (Table II) is reported as < 200 mg/kg, the “% block (MES test)” value [1] is reported as 80% and the “MES test results (activity in words)” value [1] is reported as “Active”.

With `COc1ccc(NC(=O)N=C2SCCN2C)cc1` [compound 10] the “MES test results (IA)” value (Table II, 200 mg/kg p.o.) was “IA”.

`CN1CCSC1=NC(=O)Nc1ccccc1C(F)(F)F` [compound 11] was tested, and the ED50 (Table II) was 92.2 mg/kg.

For `CN1CCSC1=NC(=O)Nc1cccc(C(F)(F)F)c1` [compound 12], the “MES test results (IA)” value (Table II, 200 mg/kg p.o.) was “IA”.

With `CN1CCSC1=NC(=O)Nc1ccc(C(F)(F)F)cc1` [compound 13] the “MES test results (IA)” value (Table II, 200 mg/kg p.o.) was “IA”.

With `CN1CCSC1=NC(=O)Nc1ccc([N+](=O)[O-])cc1` [compound 14] the “MES test results (IA)” value (Table II, 200 mg/kg p.o.) was “IA”.

Molecule `CCc1cccc(CC)c1NC(=O)N=C1SCCN1C` [compound 15] has an ED50 (Table II) of 14.2 mg/kg.

In the case of `CCc1cccc(C)c1NC(=O)N=C1SCCN1C` [compound 16], the ED50 (Table II) is reported as 17.4 mg/kg.

Molecule `Cc1cccc(C)c1NC(=O)N=C1NCCS1` [compound 17] has an ED50 (Table II) of 31 mg/kg.

In the case of `Cc1cccc(C)c1NC(=O)N=C1SCCN1C` [compound 18], the “potency of 3-Me compound relative to 3-H compound (more potent than 3-H)” value is reported as 2.6 × and the ED50 (Table II) is reported as 11.8 mg/kg.

For `Cc1ccc(C)c(NC(=O)N=C2SCCN2C)c1` [compound 19], the ED50 (Table II) was 66.1 mg/kg.

`Cc1ccc(NC(=O)N=C2SCCN2C)c(C)c1` [compound 20] was tested, and the ED50 (Table II) was 178 mg/kg.

`Cc1cccc(NC(=O)N=C2SCCN2C)c1C` [compound 21] showed an ED50 (Table II) of 37.2 mg/kg.

For `Cc1ccc(NC(=O)N=C2SCCN2C)cc1C` [compound 22], the ED50 (Table II) was > 200 mg/kg and the “% block (MES test)” value (Table II, p.o., dose not given) was 10%.

For `Cc1cc(C)cc(NC(=O)N=C2SCCN2C)c1` [compound 23], the “MES test results (IA)” value (Table II, 200 mg/kg p.o.) was “IA”.

With `CN1CCSC1=NC(=O)Nc1cc(C(F)(F)F)cc(C(F)(F)F)c1` [compound 24] the “MES test results (IA)” value (Table II, 200 mg/kg p.o.) was “IA”.

`Cc1cc(C)c(NC(=O)N=C2SCCN2C)c(C)c1` [compound 25] showed an ED50 (Table II) of 66.5 mg/kg.

With `Cc1cccc(Cl)c1NC(=O)N=C1SCCN1C` [compound 26] the ED50 (Table II) was 15.3 mg/kg.

Work on `O=C(N=C1NCCS1)Nc1c(Cl)cccc1Cl` [compound 27] yielded an ED50 (Table II) of 70.7 mg/kg.

For `CN1CCSC1=NC(=O)Nc1c(Cl)cccc1Cl` [compound 28], the “potency of 3-Me compound relative to 3-H compound (more potent than 3-H)” value was 4 × and the ED50 (Table II) was 17.4 mg/kg.

`CN1CCSC1=NC(=O)Nc1c(F)cccc1F` [compound 29] showed an ED50 (Table II) of 22.7 mg/kg.

`CN1CCSC1=NC(=O)Nc1c(Br)cccc1Br` [compound 30] showed an ED50 (Table II) of 69.6 mg/kg.

`CN1CCSC1=NC(=O)Nc1c(Br)cc(F)cc1Br` [compound 31] was tested, and the ED50 (Table II) was < 200 mg/kg, the “% block (MES test)” value [1] was 80% and the “MES test results (activity in words)” value [1] was “Active”.

`CN1CCSC1=NC(=O)Nc1c(Cl)cc(Cl)cc1Cl` [compound 32] was tested, and the “MES test results (IA)” value (Table II, 200 mg/kg p.o.) was “IA”.

Molecule `COc1cccc(OC)c1NC(=O)N=C1SCCN1C` [compound 33] has an ED50 (Table II) of 41.2 mg/kg.

For `COc1ccc(NC(=O)N=C2SCCN2C)cc1OC` [compound 34], the ED50 (Table II) was > 200 mg/kg and the “% block (MES test)” value [1] was 20%.

Source: patent publication US4542144A, “Anticonvulsant N-aryl-N'-(2-thiazolidinylidene)ureas” (McNeilab Inc., priority 1983, dated 1985)
